Read-outs that look alike come from different tables or passages of the source.
Tests used:
[1] = Non-specific binding in the absence of plasma proteins (RED method development); assay type: physicochemical; settings: RED devices
Excerpt: To counteract the NSB, Sigmacote®-treated pipette tips were used.

[2] = assay type: in vitro ADME; settings: 20 ng/mL
Description: To ensure correct sample collection during the clinical trial procedures, whole-blood (using K3-EDTA as anticoagulant) stability was studied by spiking the blood (lurbinectedin at 20 ng/mL and M4 and M6 at 10 ng/mL). Aliquots of the whole blood were then centrifuged at 4°C for 0, 30, 60, 90 and 120 minutes post equilibration (15 minutes at 37°C) to produce plasma, which was then frozen prior to analysis. This was performed at room temperature (and in an ice bath for lurbinectedin). The derived plasma samples were analyzed in triplicate, and the criterion for acceptance was defined as having a response within ±15% of the zero-minute sample.

[3] = Plasma protein binding by rapid equilibrium dialysis (RED) in K3-EDTA plasma from donors; assay type: in vitro ADME, human; settings: human; for fraction unbound at 8 h, 100 ng/mL: RED 8 hours 37°C; for fraction unbound at 8 h, 100 ng/mL / fraction unbound at 8 h, 500 ng/mL: read-out: mean percent unbound
Excerpt: RED was considered the best alternative over other methods (e.g., ultrafiltration) to separate lurbinectedin unbound fraction (fu), due to high non-specific binding (NSB) of lurbinectedin leading to adsorption. The RED device consists of a cylinder of dialysis membrane with an 8-kDa molecular weight cut-off held in place by a polytetrafluoroethylene support; the dialysis membrane tube is closed at one end. The RED devices are disposable and used in a reusable polytetrafluoroethylene support plate (holds a maximum of 48 devices). The design of the plate and device allows for PBS to be added in such a way that it can circulate freely around the cylinder of dialysis membrane. In use, spiked plasma (400 μL) is added to the dialysis membrane cylinder part of the RED device, and PBS (600 μL) is added to the other side. The plate, device and volumes used result in a consistent fluid level across both sides of the membrane, preventing mass movement of fluid across the membrane due to hydrostatic pressure.
Each measurement was performed using three RED devices; the devices were placed in the plate and spiked plasma and PBS were added. The plate was then mixed on an incubating microplate shaker at 100 rpm and 37°C for 8 hours.
Both the plasma (diluted 1 in 20 with plasma:PBS 1:1, v:v) and PBS (diluted with plasma 1:1, v:v) were assayed in triplicate using the extraction and UPLC-MS/MS method described above. Transfer of the PBS from the incubation plate into an equivalent volume of plasma prior to assay was performed using pipette tips that had been pre-treated with Sigmacote®.
In vitro PPB experiments to determine lurbinectedin fu were conducted with RED in K3-EDTA plasma from donors. Fresh plasma (not previously frozen), previously frozen plasma (fresh plasma subjected to four cycles of freeze [at -80°C ±10°C for ≥12 hours] then thawed [at room temperature for 2 hours]) and diluted fresh plasma (not previously frozen, diluted 1:1 with PBS prior to incubation) were spiked to 100 ng/mL with lurbinectedin and then equilibrated with PBS in RED devices for 8 hours at 37°C and assayed.
In addition, the stability of lurbinectedin PPB in fresh plasma following storage at -80°C ±10°C was evaluated; aliquots of fresh plasma samples (not previously frozen) from three donors were spiked with 500 ng/mL of lurbinectedin. The samples were stored for at least 21, 30, 62 and 91 days prior to analysis; the day 0 aliquots were not frozen before analysis. The spiked aliquots from the three donors were equilibrated with PBS in RED devices in triplicate. The samples generated in the RED devices were analyzed in triplicate.

[4] = Lurbinectedin concentration in treated patient plasma sample (UPLC-MS/MS); assay type: in vivo, human; settings: single treated patient plasma sample of Fig 2
Description: The sample extraction was performed by adding 100 μL of the CS, QC or test sample, 50 μL of aqueous IS solution and 50 μL of 1 M ammonium hydroxide to a 300-μL 96-well microtiter plate. This was then mixed and transferred to a 200-mg Isolute SLE+ plate. After 5 minutes of equilibrium, the samples were then eluted from the SLE plate with 1 mL of MTBE into glass inserts and dried under nitrogen. The samples were then reconstituted with 40 μL of acetonitrile:water (1:1, v:v) with 0.1% of formic acid prior to analysis.
The ultra-performance liquid chromatography (UPLC) system was coupled to a triple quadrupole mass spectrometer. The UPLC system was a Acquity system (Waters, Milford, MA, USA) and composed of a binary pump, column oven and cooled auto sampler. The mass spectrometer was a TQD with an electrospray ionization source from Waters.
The analytical column was a BEH C18 (1.7 μm, 50 × 2.1 mm) and was used in conjunction with a pre-column frit (0.2 μm, 2.1 mm) from Waters. The chromatographic separation was performed at 50°C with a flow rate of 0.4 mL/minute utilizing a linear gradient of water (A) and acetonitrile (B), both with 0.1% ammonium hydroxide: 10% to 100% B from 0.00 to 1.00 minute; isocratic at 100% B for 1.50 minute, then returning to initial conditions from 2.50 to 2.51 minutes with a total run time of 3.5 minutes. The samples were kept at 10°C until injection (10 μL). […]

SMILES: COc1ccc2[nH]c3c(c2c1)CCN[C@]31CS[C@@H]2c3c(OC(C)=O)c(C)c4c(c3[C@H](COC1=O)N1[C@@H]2[C@H]2c3c(cc(C)c(OC)c3O)C[C@@H]([C@@H]1O)N2C)OCO4 [Lurbinectedin]
- non-specific binding (NSB) [1]: very high levels of NSB
- stability in human whole K3-EDTA blood [2]: ≥ 120 min
- fraction unbound at 8 h, 100 ng/mL ([3]; fresh K3-EDTA plasma diluted 1:1 with PBS, diluted fresh plasma (1:1 with PBS)): 0.00668
- fraction unbound at 8 h, 500 ng/mL ([3]; fresh K3-EDTA plasma from three donors (not frozen), fresh plasma from three donors, day 0 (not frozen)): 0.00151 to 0.00335
- fraction unbound at 8 h ([3]; plasma, human plasma, RED (abstract)): 0.004
- fraction unbound at 8 h, 100 ng/mL ([3]; previously frozen K3-EDTA plasma (four freeze-thaw cycles), previously frozen plasma (four freeze-thaw cycles)): 0.00443
- fraction unbound at 8 h, 500 ng/mL ([3]; three donors, day 21 after storage at -80°C ±10°C): 0.00206 to 0.00319
- fraction unbound at 8 h, 500 ng/mL ([3]; three donors, day 30 after storage at -80°C ±10°C): 0.00168 to 0.00266
- fraction unbound at 8 h, 500 ng/mL ([3]; three donors, day 62 after storage at -80°C ±10°C): 0.00196 to 0.00286
- fraction unbound at 8 h, 500 ng/mL ([3]; three donors, day 91 after storage at -80°C ±10°C): 0.00159 to 0.00213
- plasma concentration in a treated patient sample [4]: 177 ng/mL

Source: paper PMC10062662, “Quantitative determination of lurbinectedin, its unbound fraction and its metabolites in human plasma utilizing ultra-performance LC–MS/MS” (PLOS ONE, 2023)
